Measured values as given in ChEMBL document CHEMBL1153542, “RNase H active site inhibitors of human immunodeficiency virus type 1 reverse transcriptase: design, biochemical activity, and structural information” (J Med Chem, 2009).
Active and inactive are the calls of the source. No cut-off for these calls is given here.

How the values were obtained:
[1] = test system: Human immunodeficiency virus; experiment: Antiviral activity against HIV infected in human MT4 cells up to 100 uM by multicycle infectivity assay; format: functional, organism-based
[2] = molecular target: Ribonuclease H1 (Homo sapiens) (UniProt O60930); experiment: Inhibition of human recombinant ribonuclease H1 in presence of Mg2+
[3] = molecular target: T1, Ribonuclease H1 (Homo sapiens, UniProt O60930); experiment: Inhibition of human RNase H assessed as substrate cleavage by fluorescence assay
T1 sequence (O60930 whole entry): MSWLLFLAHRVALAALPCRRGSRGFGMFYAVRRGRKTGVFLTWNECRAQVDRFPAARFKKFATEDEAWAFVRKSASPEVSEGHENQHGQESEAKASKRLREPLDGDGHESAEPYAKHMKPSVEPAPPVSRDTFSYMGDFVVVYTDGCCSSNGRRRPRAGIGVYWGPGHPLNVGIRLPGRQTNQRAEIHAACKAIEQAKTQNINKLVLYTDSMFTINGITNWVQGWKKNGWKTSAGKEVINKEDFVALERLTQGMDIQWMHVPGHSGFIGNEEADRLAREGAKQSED

| IC50 [2] [µM] | IC50 [3] [µM] | Compound | Activity [1] |
| --- | --- | --- | --- |
| > 100 |  | O=C(O)c1nc(-c2ccccc2)nc(O)c1O | inactive |
|  |  | O=C(O)c1nc(Cc2ccc(Cl)c(Cl)c2)nc(O)c1O | inactive |
|  |  | O=C(O)c1nc(Cc2c(Br)sc3ccc(Cl)cc23)nc(O)c1O | inactive |
|  |  | COC(=O)c1nc(Cc2ccccc2)nc(O)c1O | inactive |
|  |  | O=C(O)c1nc(Cc2ccccc2)nc(O)c1O | inactive |
|  |  | COc1ccc(Cc2nc(O)c(O)c(C(=O)O)n2)cc1Br | inactive |
|  |  | O=C(O)c1nc(CCc2ccccc2)nc(O)c1O | inactive |
|  | 5.9 | O=c1[nH]c2ccccc2c(=O)n1O | inactive |
